Laboratory results from patent US12370180B2, “P38 map kinase inhibitors for treating Friedreich's ataxia” (THE TRUSTEES OF THE UNIVERSITY OF PENNYSLVANIA, priority 2015, dated 2025).
“Also recorded” adds a separate entry of the source.

Tests used:
Type in all cases: cell-based, human
primary FA fibroblasts = assay: Growth of primary FA fibroblasts in beta-hydroxybutyrate (BHB) based mitochondrial stress medium; settings: for reversal of the slow-growth phenotype (growth defect) of primary FA fibroblasts: beta-hydroxybutyrate-based media
Description: The data shown are the means of triplicate samples+/−one SD. ***p<0.005. (C) Survival of normal control fibroblasts (GM8402) and FA fibroblasts (GM4078) in DMEM plus BHB after 12 days in culture. ***p<0.005. […] Cells were seeded at 80,000 cells per 100 mm dish and were kept sub-confluent. The data shown are the means of triplicate samples+/−one SD. ***p<0.005.
FA 3665B cells were infected with gFA2 (squares), gFA11 (diamonds) or a random clone (C3) (triangles). Cells were then sorted and GFP-positive cells were grown in DMEM plus BHB 5 mM (FIG. 4A) or in DMEM plus 5 mM glucose (FIG. 4B) ***=p […].
FA is caused by intronic trinucleotide repeat expansions that decrease expression of frataxin, a protein involved in mitochondrial iron-sulfur-cluster biogenesis. Clones were selected that reverse the slow-growth phenotype of primary FA fibroblasts in media with beta-hydroxybutyrate, a carbon source that particularly stresses cells with mitochondrial dysfunction (FIGS. 1 and 3). Among several clones identified, two clones have been tested and confirmed (FIG. 4): “Clone 2” (also referred to as gFA2) and “Clone 11” (also referred to as gFA11). The DNA coding strand for the shRNA sequences of those two […] (gFA2 and gFA11) are provided below, with the loop-encoding sequences in brackets. The shRNAs themselves are RNA versions of these sequences, with T changed to U.
These experiments have been repeated several times, over 4 days, 7 days, and 10 days, with the same results. Therefore, random shRNA screening can be combined with bioinformatic pattern matching to identify conventional chemical-compound therapeutic candidates, and potential therapeutic target proteins.

frataxin = assay: Frataxin expression in primary FA fibroblasts; settings: vector-expressed shRNA or 10 nM transfected siRNA, BHB medium
Description: Frataxin expression in GM3816 cells infected with gFA2 vs. a random clone (C3) (FIG. 5A) and in GM3665B cells transfected with 10 nM gFA2 siRNA or a random clone (C3) (FIG. 5B). Cells were transfected every 3-4 days for two weeks and kept in BHB medium after the first transfection. ***=p value<0.005
FIG. 6: Hit-optimization of clone gFA2. A sub-library of ˜3000 sequences was constructed, each with a limited number of random mutations compared to gFA2. This sub-library was screened as described previously and two gFA2-variant clones, gFA2.8 and gFA2.10, were identified. […] (Cells were transfected every two days for one week and kept in DMEM plus 5 mM BHB after the first transfection. ***=p value<0.005). gFA2.8 has 5 mutations compared to gFA2; as a result, there are 5 mismatched bases in the hairpin structure.

cytokine secretion = assay: Cytokine secretion into media of FA cells, measured by ELISA; settings: media of FA cells expressing clone vs gFA11-Mut1
Description: FIGS. 9A and 9B show the effect of gFA11 and gFA11-Mut1 shRNA sequences on the secretion of cytokines as measured by ELISA. […] These secretion patterns matched the expression changes seen on microarray analysis of mRNAs of the same cytokines.
(§1) Of relevance, it has been shown that silencing of the FA disease gene induces a senescence phenotype. […] Finally, gene-expression analyses of cells expressing Clone 11 also indicated an up-regulation of genes involved in DNA repair.

GM3816 cells = assay: Sensitivity of FA cells to ionizing (gamma) radiation; settings: 0.6 Gy irradiation
Description: as §1

In the case of `Cc1ccc(-n2nc(C(C)(C)C)cc2NC(=O)NCc2cc(F)ccc2Oc2ccc3c(cnn3CCO)c2)cc1` [ARRY-614, pexmetinib], the “reversal of the slow-growth phenotype (growth defect) of primary FA fibroblasts” value (from here on “reversal of the slow-growth phenotype”) (primary FA fibroblasts) is reported as “reversal of the growth defect”.

With `Cc1ccc(-n2nc(C(C)(C)C)cc2NC(=O)Nc2ccc(OCCN3CCOCC3)c3ccccc23)cc1` [BIRB-796, doramapimod] the “reversal of the slow-growth phenotype” value (primary FA fibroblasts) was “recapitulate the phenotype induced by Clone 11; also recorded: reverses the growth defect”.

For `Cc1c(F)cc(C(=O)NC2CC2)cc1-c1ccc(C(=O)NCC(C)(C)C)cn1` [GW-856553, losmapimod], the “reversal of the slow-growth phenotype” value (primary FA fibroblasts) was “reversal of the growth defect”.

For `CNC(=O)c1ccc(C)c(-n2c(C)cc(OCc3ccc(F)cc3F)c(Br)c2=O)c1` [PH-797804], the “reversal of the slow-growth phenotype” value (primary FA fibroblasts) was “reversal of the growth defect”.

For `Oc1ccc(-c2nc(-c3ccncc3)c(-c3ccc(F)cc3)[nH]2)cc1` [SB-202190], the “reversal of the slow-growth phenotype” value (primary FA fibroblasts) was “recapitulate the phenotype induced by Clone 11; also recorded: reversal of the growth defect”.

`C[S+]([O-])c1ccc(-c2nc(-c3ccncc3)c(-c3ccc(F)cc3)[nH]2)cc1` (centres unmarked) [SB-203580] was tested, and the “reversal of the slow-growth phenotype” value (primary FA fibroblasts) was “recapitulates the phenotype induced by Clone 11; also recorded: reverses the growth defect” and the “reversal of the slow-growth phenotype” value (primary FA fibroblasts; listed as SB203580) was “increase the growth of FA cells in a dose-dependent manner”.

With `NC(=O)c1ccc(N(C(N)=O)c2c(F)cccc2F)nc1-c1ccc(F)cc1F` [VX-702] the increased growth (primary FA fibroblasts; at 500 nM, p=0.02) was 1.2 fold and the “reversal of the slow-growth phenotype” value (primary FA fibroblasts) was “recapitulate the phenotype induced by Clone 11; also recorded: reversal of the growth defect”.

`O=c1ncn2nc(Sc3ccc(F)cc3F)ccc2c1-c1c(Cl)cccc1Cl` [VX-745] was tested, and the “reversal of the slow-growth phenotype” value (primary FA fibroblasts) was “reversal of the growth defect”.

For “gFA11-Mut1: version of Clone 11 with a point mutation in the seed sequence, SEQ ID No: 5 and 6 (chain 1 AACACAAUGGAAGAGUGCUGGGUDGDG; chain 2 UGUUGUGUUACCUUCUCACGACCCACC; listed as RNA, chemistry not fully specified; one strand is listed 3' to 5')”, the “reversal of the slow-growth phenotype” value (primary FA fibroblasts) was “diminished; also recorded: the growth-enhancement phenotype of gFA11 is affected”.

With “gFA11: hit shRNA from random library, SEQ ID No: 2; siRNA version SEQ ID No: 3 and 4 (chain 1 AACAGAAUGGAAGAGUGCUGGGUDGDG; chain 2 UGUUGUCUUACCUUCUCACGACCCACC; listed as RNA, chemistry not fully specified; one strand is listed 3' to 5')” the frataxin expression (frataxin) was “does not increase frataxin expression”, the GM-CSF secretion (cytokine secretion; p<0.001) was “decreases” and the VEGF secretion (cytokine secretion; p<0.001) was “decreases”. The “IL8 (IL-8) secretion” value (cytokine secretion; p=0.001) was “decreases”, the GRO secretion (cytokine secretion; p=0.003) was “decreases” and the MCP-1 secretion (cytokine secretion; p=0.005) was “decreases”. The “IL1-beta (IL-1-beta) secretion” value (cytokine secretion; p=0.01) was “decreases”, the IP-10 secretion (cytokine secretion; p=0.01) was “decreases” and the RANTES secretion (cytokine secretion; p=0.04) was “decreases”. The “IL6 (IL-6) secretion” value (cytokine secretion; p=0.09) was “decreases”, the “reversal of the slow-growth phenotype” value (primary FA fibroblasts) was “increase the growth of FA fibroblasts; also recorded: growth-enhancing effect; also recorded: recapitulate the phenotype induced by the corresponding shRNA sequence” and the “reversal of the slow-growth phenotype” value (primary FA fibroblasts; listed as Clone 11) was “more effective than Clone 2”. For the same molecule, the “cell susceptibility to gamma irradiation” value (GM3816 cells) was “are able to recover” and the “cell susceptibility to gamma irradiation” value (GM3816 cells; listed as Clone 11) was “protective”.

For ralimetinib dimesylate [LY-2228820], the increased growth (primary FA fibroblasts; at 50 nM, p<0.005) was 1.6 fold and the “reversal of the slow-growth phenotype” value (primary FA fibroblasts) was “recapitulate the phenotype induced by Clone 11; also recorded: reversal of the growth defect”.

B1: gFA2: hit shRNA (also used as siRNA) from random shRNA library, SEQ ID No: 1 (nucleic acid)
chain: GCCAATCGGGGAGGTCGGCGCATATCATGCTAAACCATGATATGCGCCGACCTCCCCGATTGGC
With B1 the frataxin expression (frataxin) was “increases frataxin expression”, the frataxin expression (frataxin; listed as Clone 2) was “partially reverses the decreased expression of frataxin” and the “reversal of the slow-growth phenotype” value (primary FA fibroblasts) was “increase the growth of FA fibroblasts”.

B2: gFA2.8: gFA2-variant clone with 5 mutations compared to gFA2, SEQ ID No: 9 (nucleic acid)
chain: GCCCCTCGGGCAGGTCGGCGAATATCATGCTAAACTATGATATGCGCCGACCTCCCCGATTGGC
modifications: expressed or natural sequence
With B2 the frataxin expression (frataxin) was “more efficacious”.

B3: gFA2.10: gFA2-variant clone, SEQ ID No: 10 (nucleic acid)
chain: GCCCCTCGGGCAGGTCGGCGAATATCATGCTAAACTATGATATGCGCCGACCTTCCCGATTGGC
modifications: expressed or natural sequence
For B3, the frataxin expression (frataxin) was “more efficacious”.
